In patent US20240368135A1 (VERTEX PHARMACEUTICALS INCORPORATED, priority 2021, published 2024):
Read-outs that look alike come from different tables or passages of the source.

Target: human NaV 1.8 (Homo sapiens, UniProt Q9Y5Y9)
Assay: E-VIPR assay detecting and measuring NaV inhibition properties
Format: cell-based
Settings: HEK cells expressing truncated human NaV 1.8
In short: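 HEK cells expressing truncated, fully active human NaV1.8, with KIR2.1 BacMam co-transduction, were loaded with CC2-DMPE/DiSBAC6(3) voltage-sensing dyes for 20 min at room temperature. Compounds were tested in 11-point 3-fold dilutions (300 nM top final), optionally with 25% human serum, under electrical stimulation with FRET read-out.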

[1] = no human serum, read-out: IC50 in the E-VIPR Assay
[2] = in the presence of human serum (compound numbers followed by *), read-out: IC50 in the E-VIPR Assay, performed in the presence of human serum

human NaV 1.8, sequence (Q9Y5Y9 126-399 limits assumed): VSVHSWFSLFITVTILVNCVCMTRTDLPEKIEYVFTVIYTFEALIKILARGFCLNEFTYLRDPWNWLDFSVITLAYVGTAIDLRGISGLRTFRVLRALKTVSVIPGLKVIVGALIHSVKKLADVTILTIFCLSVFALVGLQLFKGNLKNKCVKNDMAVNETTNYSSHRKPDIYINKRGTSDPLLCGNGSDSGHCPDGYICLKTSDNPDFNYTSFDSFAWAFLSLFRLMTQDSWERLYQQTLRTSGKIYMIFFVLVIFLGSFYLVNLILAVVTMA
human NaV 1.8, sequence (Q9Y5Y9 660-890 limits assumed): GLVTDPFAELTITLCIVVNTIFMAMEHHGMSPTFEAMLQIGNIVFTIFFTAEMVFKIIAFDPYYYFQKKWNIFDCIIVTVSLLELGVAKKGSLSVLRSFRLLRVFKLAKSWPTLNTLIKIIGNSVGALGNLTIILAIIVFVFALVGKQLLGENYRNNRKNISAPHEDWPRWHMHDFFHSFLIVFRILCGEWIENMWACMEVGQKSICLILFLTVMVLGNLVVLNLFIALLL
human NaV 1.8, sequence (Q9Y5Y9 1148-1722 limits assumed): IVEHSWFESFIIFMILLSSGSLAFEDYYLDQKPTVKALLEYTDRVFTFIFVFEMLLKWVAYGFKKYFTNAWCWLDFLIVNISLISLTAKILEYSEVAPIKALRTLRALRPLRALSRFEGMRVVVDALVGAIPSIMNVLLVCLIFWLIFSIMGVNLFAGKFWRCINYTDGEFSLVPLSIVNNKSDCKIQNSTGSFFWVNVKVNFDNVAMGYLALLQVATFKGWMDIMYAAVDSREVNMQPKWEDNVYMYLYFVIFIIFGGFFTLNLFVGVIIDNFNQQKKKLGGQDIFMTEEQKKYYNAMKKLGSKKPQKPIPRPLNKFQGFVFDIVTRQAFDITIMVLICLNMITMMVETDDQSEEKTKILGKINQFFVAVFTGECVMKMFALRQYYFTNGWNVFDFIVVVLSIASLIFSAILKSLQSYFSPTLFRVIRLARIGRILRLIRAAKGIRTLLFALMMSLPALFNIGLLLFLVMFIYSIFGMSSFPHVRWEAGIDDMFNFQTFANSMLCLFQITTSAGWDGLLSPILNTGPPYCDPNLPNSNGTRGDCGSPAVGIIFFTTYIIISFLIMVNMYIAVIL

IC50 [1] [µM]	IC50 [2] [µM]	Structure (SMILES)
0.01 to 0.1		COCC(O)c1cc(NC(=O)[C@@H]2O[C@@](C)(C(F)(F)F)[C@@H](C)[C@H]2c2ccc(F)c(F)c2OCCN2CC(F)C2)ccn1 (single isomer, unassigned) [Compound 608, rel-(2R*,3S*,4S*,5R*)-3-(3,4-difluoro-2-(2-(3-fluoroazetidin-1-yl)ethoxy)phenyl)-N-(2-(1-hydroxy-2-methoxyethyl)pyridin-4-yl)-4,5-dimethyl-5-(trifluoromethyl)tetrahydrofuran-2-carboxamide]
	0.01 to 0.1	COc1c([C@@H]2C[C@](C)(C(F)(F)F)O[C@H]2C(=O)Nc2ccnc(C(O)CO)c2)ccc(F)c1F (single isomer, unassigned) [Compound 685]
	≥ 1	COc1c([C@H]2C[C@@](C)(C(F)(F)F)O[C@@H]2C(=O)Nc2ccnc(C(O)CO)c2)ccc(F)c1F (single isomer, unassigned) [Compound 686]
	0.1 to 1	COc1c([C@@H]2C[C@](C)(C(F)(F)F)O[C@H]2C(=O)Nc2cc(C(O)CO)ncc2F)ccc(F)c1F (single isomer, unassigned) [Compound 689]
	≥ 1	COc1c([C@H]2C[C@@](C)(C(F)(F)F)O[C@@H]2C(=O)Nc2cc(C(O)CO)ncc2F)ccc(F)c1F (single isomer, unassigned) [Compound 690]
	≥ 1	COc1c(C2CC(C)(C(F)(F)F)OC2C(=O)Nc2ccnc(C(O)C(C)O)c2)ccc(F)c1F (single isomer, unassigned) [Compound 693]
	0.01 to 0.1	COc1c(C2CC(C)(C(F)(F)F)OC2C(=O)Nc2ccnc(C(O)C(C)O)c2)ccc(F)c1F (single isomer, unassigned) [Compound 694]
	≥ 1	COc1c(C2CC(C)(C(F)(F)F)OC2C(=O)Nc2ccnc(C(O)C(C)O)c2)ccc(F)c1F (single isomer, unassigned) [Compound 695]
	0.01 to 0.1	COc1c(C2CC(C)(C(F)(F)F)OC2C(=O)Nc2ccnc(C(O)C(C)O)c2)ccc(F)c1F (single isomer, unassigned) [Compound 696]
	≥ 1	COc1c(C2CC(C)(C(F)(F)F)OC2C(=O)Nc2ccnc(C(O)C(C)O)c2)ccc(F)c1F (single isomer, unassigned) [Compound 697]
0.01 to 0.1		COc1c([C@@H]2C[C@](C)(C(F)(F)F)O[C@H]2C(=O)Nc2ccnc(C(C)(O)CO)c2)ccc(F)c1F (single isomer, unassigned) [Compound 701]
	≥ 1	COc1c([C@H]2C[C@@](C)(C(F)(F)F)O[C@@H]2C(=O)Nc2ccnc([C@H](O)CO)c2)ccc(F)c1C (single isomer, unassigned) [Compound 703]
0.01 to 0.1		COc1c([C@@H]2C[C@](C)(C(F)(F)F)O[C@H]2C(=O)Nc2ccnc([C@H](O)CO)c2)ccc(F)c1C (single isomer, unassigned) [Compound 704]
	≥ 1	COc1c([C@H]2C[C@@](C)(C(F)(F)F)O[C@@H]2C(=O)Nc2ccnc(C(O)CO)c2)ccc(F)c1C (single isomer, unassigned) [Compound 705]
0.01 to 0.1		COc1c([C@@H]2C[C@](C)(C(F)(F)F)O[C@H]2C(=O)Nc2ccnc([C@@H](O)CO)c2)ccc(F)c1C (single isomer, unassigned) [Compound 706]
	≥ 1	CCOc1c([C@H]2C[C@@](C)(C(F)(F)F)O[C@@H]2C(=O)Nc2ccnc(C(O)CO)c2)ccc(F)c1F (single isomer, unassigned) [Compound 709]

IC50 [1] [µM]	IC50 [2] [µM]	Structure (SMILES)
0.01 to 0.1		CCOc1c([C@@H]2C[C@](C)(C(F)(F)F)O[C@H]2C(=O)Nc2ccnc(C(O)CO)c2)ccc(F)c1F (single isomer, unassigned) [Compound 710]
	≥ 1	COc1c(C2C(C(=O)Nc3ccnc(C(O)CO)c3)OC(C)(C)C2C)ccc(F)c1F (single isomer, unassigned) [Compound 722, rel-3-(3,4-difluoro-2-methoxyphenyl)-N-(2-(1,2-dihydroxyethyl)pyridin-4-yl)-4,5,5-trimethyltetrahydrofuran-2-carboxamide]
	≥ 1	COc1c(C2C(C(=O)Nc3ccnc(C(C)(O)CO)c3)OC(C)(C)C2C)ccc(F)c1F (single isomer, unassigned) [Compound 725, rel-3-(3,4-difluoro-2-methoxyphenyl)-N-(2-(1,2-dihydroxypropan-2-yl)pyridin-4-yl)-4,5,5-trimethyltetrahydrofuran-2-carboxamide]
0.1 to 1		COc1c([C@H]2[C@H](C(=O)Nc3ccnc(C(C)(O)CO)c3)OC(C)(C)[C@H]2C)ccc(F)c1F (single isomer, unassigned) [Compound 731]
0.01 to 0.1		COc1c([C@H]2[C@H](C(=O)Nc3ccnc(C(C)(O)CO)c3)OC(C)(C)[C@H]2C)ccc(F)c1F (single isomer, unassigned) [Compound 732]
≥ 1		CCOc1c([C@@H]2[C@@H](C(=O)Nc3ccnc(S(C)(=O)=O)c3)O[C@](C)(C(F)(F)F)[C@@H]2C)ccc(F)c1F (stereo in doubt) [Compound 4, rel-(2S,3R,4R,5S)-3-(2-ethoxy-3,4-difluorophenyl)-4,5-dimethyl-N-(2-(methylsulfonyl)pyridin-4-yl)-5-(trifluoromethyl)tetrahydrofuran-2-carboxamide]
	≥ 1	C[C@@H]1[C@H](c2ccc(F)c(F)c2OC(F)F)[C@@H](C(=O)Nc2ccnnc2)O[C@]1(C)C(F)(F)F (stereo in doubt) [Compound 63, rel-(2S,3R,4R,5S)-3-(2-(difluoromethoxy)-3,4-difluorophenyl)-4,5-dimethyl-N-(pyridazin-4-yl)-5-(trifluoromethyl)tetrahydrofuran-2-carboxamide]
< 0.01		C[C@H]1[C@@H](c2ccc(F)c(F)c2OC(F)F)[C@H](C(=O)Nc2ccnnc2)O[C@@]1(C)C(F)(F)F (stereo in doubt) [Compound 64, rel-(2R,3S,4S,5R)-3-(2-(difluoromethoxy)-3,4-difluorophenyl)-4,5-dimethyl-N-(pyridazin-4-yl)-5-(trifluoromethyl)tetrahydrofuran-2-carboxamide]
≥ 1		C[C@@H]1[C@H](c2ccc(F)c(F)c2OC(F)F)[C@@H](C(=O)Nc2ccc(C(N)=O)cc2)O[C@]1(C)C(F)(F)F (stereo in doubt) [Compound 73, rel-(2S,3R,4R,5S)-N-(4-carbamoylphenyl)-3-(2-(difluoromethoxy)-3,4-difluorophenyl)-4,5-dimethyl-5-(trifluoromethyl)tetrahydrofuran-2-carboxamide]
< 0.01		C[C@H]1[C@@H](c2ccc(F)c(F)c2OC(F)F)[C@H](C(=O)Nc2ccc(C(N)=O)cc2)O[C@@]1(C)C(F)(F)F (stereo in doubt) [Compound 74, rel-(2R,3S,4S,5R)-N-(4-carbamoylphenyl)-3-(2-(difluoromethoxy)-3,4-difluorophenyl)-4,5-dimethyl-5-(trifluoromethyl)tetrahydrofuran-2-carboxamide]
≥ 1		Cc1c(F)ccc([C@@H]2[C@@H](C(=O)Nc3ccn(C)c(=O)c3)O[C@](C)(C(F)(F)F)[C@@H]2C)c1OC(F)F (stereo in doubt) [Compound 99, rel-(2S,3R,4R,5S)-3-(2-(difluoromethoxy)-4-fluoro-3-methylphenyl)-4,5-dimethyl-N-(1-methyl-2-oxo-1,2-dihydropyridin-4-yl)-5-(trifluoromethyl)tetrahydrofuran-2-carboxamide]
< 0.01		Cc1c(F)ccc([C@H]2[C@H](C(=O)Nc3ccn(C)c(=O)c3)O[C@@](C)(C(F)(F)F)[C@H]2C)c1OC(F)F (stereo in doubt) [Compound 100, rel-(2R,3S,4S,5R)-3-(2-(difluoromethoxy)-4-fluoro-3-methylphenyl)-4,5-dimethyl-N-(1-methyl-2-oxo-1,2-dihydropyridin-4-yl)-5-(trifluoromethyl)tetrahydrofuran-2-carboxamide]
< 0.01		CCOc1c([C@H]2[C@H](C(=O)Nc3ccn(C)c(=O)c3)O[C@@](C)(C(F)(F)F)[C@H]2C)ccc(F)c1F (stereo in doubt) [Compound 101, rac-(2R,3S,4S,5R)-3-(2-ethoxy-3,4-difluorophenyl)-4,5-dimethyl-N-(1-methyl-2-oxo-1,2-dihydropyridin-4-yl)-5-(trifluoromethyl)tetrahydrofuran-2-carboxamide]
≥ 1		CCOc1c([C@@H]2[C@@H](C(=O)Nc3ccn(C)c(=O)c3)O[C@](C)(C(F)(F)F)[C@@H]2C)ccc(F)c1F (stereo in doubt) [Compound 102, rel-(2S,3R,4R,5S)-3-(2-ethoxy-3,4-difluorophenyl)-4,5-dimethyl-N-(1-methyl-2-oxo-1,2-dihydropyridin-4-yl)-5-(trifluoromethyl)tetrahydrofuran-2-carboxamide]
< 0.01		CCOc1c([C@H]2[C@H](C(=O)Nc3ccn(C)c(=O)c3)O[C@@](C)(C(F)(F)F)[C@H]2C)ccc(F)c1F (stereo in doubt) [Compound 103, rel-(2R,3S,4S,5R)-3-(2-ethoxy-3,4-difluorophenyl)-4,5-dimethyl-N-(1-methyl-2-oxo-1,2-dihydropyridin-4-yl)-5-(trifluoromethyl)tetrahydrofuran-2-carboxamide]

Structure (SMILES)	IC50 [1] [µM]	IC50 [2] [µM]
COCC(O)c1cc(NC(=O)[C@@H]2O[C@@](C)(C(F)(F)F)[C@@H](C)[C@H]2c2ccc(F)c(F)c2OCCN2CC3CC(C2)O3)ccn1 (single isomer, unassigned) [Compound 610, rel-(2R*,3S*,4S*,5R*)-3-(2-(2-(6-oxa-3-azabicyclo[3.1.1]heptan-3-yl)ethoxy)-3,4-difluorophenyl)-N-(2-(1-hydroxy-2-methoxyethyl)pyridin-4-yl)-4,5-dimethyl-5-(trifluoromethyl)tetrahydrofuran-2-carboxamide]	0.01 to 0.1	
